Source: patent publication US7816343B2, “Wood preservative composition” (HWD Acquisition, Inc., priority 2007, dated 2010)

Columns and labels:
[1] = Compatibility Test B: mixtures of single borate esters with Fungicide I; type: physicochemical; details: for appearance during mixing / separation or precipitation after mixing: borate ester mixed with Fungicide I (TBGB, HGB 10%); for overall stability of mixture with Fungicide I: conclusion from the observations; for collapse of closed container (moisture drawn from air): mixture with Fungicide I in closed container, TBGB a week, THGB 18 days
Source text: A mixture of Fungicide I and a 10% tributylene glycol biborate (TBGB) was made by pouring the TBGB into the Fungicide I. The following observations were made while making and after making the mixture.
The TBGB reacted with moisture in the air while pouring and formed a thin white film over the pour stream. […] This behavior was duplicated by opening the container and allowing it to come back to its normal shape and closing the container again. It is noted that TBGB in a fungicide mixture when open to the air will draw moisture from the air and hydrolyze to a form insolubles and result in an increase in the separated phase. The hazing during mixing and phase separation seen during the first test was identical to that observed during this mixing.
The TBGB test was repeated using a mixture of 10% hexylene glycol biborate (HGB). The mixture was made by pouring the HGB into the Fungicide I composition. The following observations were made while making and after making the mixture:
The container was closed. The crystalline material is soluble in water and isopropyl alcohol. A 10% HGB/mineral spirits solution was made to test for moisture adsorption from the air. […] The crystalline material is likely the hydroxy hexylene glycol borate compound formed by hydrolysis of the anhydride bond. The crystal formation in the HGB testing is similar to that observed in the first test in the test mixture storage drum.
The basic observations are that both the TBGB and HGB react with various components of the Fungicide I mixture and react with moisture in the air.
A mixture of tri hexylene glycol biborate (THGB) and Fungicide I was made. It was observed that the solution remains clear with no separation. Next, the mixture was left open to atmosphere for 90 days at 40% to 50% relative humidity conditions. […] A 10% evaporative loss of mineral spirits approximately every 14 days was replaced with new mineral spirits without any negative effects. […] The mixture was placed in a 0° F. freezer overnight. […] The mixture was placed in a 42° F. refrigerator for 63 hours.

[2] = cited from earlier work

Compound	appearance of solution, container closed ([1]; 10% HGB/mineral spirits solution, container closed)	appearance of solution, container open to air ([1]; 10% HGB/mineral spirits solution, opened to air, over night)	appearance during mixing [1]	separation or precipitation after mixing [1]	overall stability of mixture with Fungicide I [1]	collapse of closed container (moisture drawn from air) [1]	redissolution on heating ([1]; after freezer, heated to approximately 20 F with stirring)	appearance after open storage ([1]; mixture with Fungicide I left open to atmosphere 90 days, 40% to 50% relative humidity)	appearance after freezer storage ([1]; mixture with Fungicide I, 0° F. freezer overnight)	appearance after refrigerator storage ([1]; mixture with Fungicide I, 42° F. refrigerator, 63 hours)	maximum boron concentration of saturated aqueous solution [2]
CC1CC(C)(C)OB(OB2OC(C)CC(C)(C)O2)O1 (stereo not drawn) [HGB, hexylene glycol biborate]	remained clear without separation or solid precipitation	white crystal formation	remained clear during mixing	opaque white crystalline material immediately formed on the container surfaces	too reactive to form stable mixtures						
CC1CCOB(OCCC(C)OB2OCCC(C)O2)O1 (stereo not drawn) [TBGB, tributylene glycol biborate]			immediately became hazy	brownish/red colored layer immediately began to form at the bottom of the container	too reactive to form stable mixtures	collapse slightly after a week					
CC1CC(C)(C)OB(OC(C)CC(C)(C)OB2OC(C)CC(C)(C)O2)O1 (stereo not drawn) [THGB, tri hexylene glycol biborate]			remains clear	no separation	produces stable mixtures	without any collapse	dissolved all of the white solids	remained clear with no separation and no precipitation of solids	white solids were observed at the bottom of the container	remained clear without separation or precipitation	
OB(O)O [boric acid]											no more than one
